Test results from patent US20050009894A1 (Aventis Pharma S.A., priority 2001, published 2005).

biological target: T1, human KDR enzyme (Homo sapiens, UniProt P35968); test: Phosphorylation of the substrate PLCγ by the enzyme KDR in vitro (flashplate technique); type: biochemical; conditions: Table VII, degrees of activity by IC50 range; read-out: Activity
T1 construct: The cytoplasmic domain of human KDR enzyme is cloned in the form of a GST fusion; GST; made in house; host or cells: SF21 insect cells (baculovirus, pFastBac)
T1 sequence (P35968 786-1356 limits assumed): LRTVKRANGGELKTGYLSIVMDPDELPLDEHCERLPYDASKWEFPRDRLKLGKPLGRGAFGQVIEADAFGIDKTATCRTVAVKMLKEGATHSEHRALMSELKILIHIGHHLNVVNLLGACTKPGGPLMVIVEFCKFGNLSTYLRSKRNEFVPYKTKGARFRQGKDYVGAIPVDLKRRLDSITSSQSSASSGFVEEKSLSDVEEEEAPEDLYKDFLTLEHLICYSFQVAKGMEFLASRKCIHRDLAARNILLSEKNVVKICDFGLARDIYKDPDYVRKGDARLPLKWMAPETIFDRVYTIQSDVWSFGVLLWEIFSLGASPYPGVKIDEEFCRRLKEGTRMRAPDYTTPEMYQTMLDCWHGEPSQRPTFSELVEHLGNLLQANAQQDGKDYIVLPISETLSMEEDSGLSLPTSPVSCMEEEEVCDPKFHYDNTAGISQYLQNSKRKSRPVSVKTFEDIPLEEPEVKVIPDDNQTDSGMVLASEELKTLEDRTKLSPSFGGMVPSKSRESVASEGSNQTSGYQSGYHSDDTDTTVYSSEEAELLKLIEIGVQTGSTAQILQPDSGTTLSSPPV
Protocol: The inhibitory effect of the compounds is determined in a test of phosphorylation of a substrate by the enzyme KDR in vitro by the flasplate technique (96-well plate, NEN). The cytoplasmic domain of human KDR enzyme is cloned in the form of a GST fusion into the baculovirus expression vector pFastBac. The protein is expressed in the SF21 cells and purified to about 60% homogeneity.
The kinase activity of KDR is measured in 20 mM MOPS, 10 mM MgCl2, 10 mM MnCl2, 1 mM DTT, 2.5 mM EGTA, 10 mM β-glycerophosphate, pH 7.2 in the presence of 10 mM MgCl2, 100 μM Na3VO4, 1 mM NaF. 10 μl of the compound are added to 70 μl of kinase buffer containing 100 ng of KDR enzyme at 4° C. The reaction is initiated by adding 20 μl of solution containing 2 μg of substrate (fragment SH2-SH3 of PLCγ expressed in the form of a GST fusion protein), 2 μCi γ33P[ATP] and 2 μM cold ATP. After incubating for 1 h at 37° C., the reaction is quenched by adding 1 volume (100 μl) of 200 mM EDTA. The incubation buffer is removed and the wells are washed three times with 300 μl of PBS. The radioactivity is measured in each well using a Top Count NXT instrument (Packard).
Background noise is determined by measuring the radio-activity in wells in quadruplet containing radioactive ATP and the substrate alone.
An activity control is measured in wells in quadruplet containing all the reagents (γ33P-[ATP], KDR and the substrate PLCγ) and in the absence of compound.
The inhibition of the KDR activity with the compound of the invention is expressed as a percentage of inhibition of the control activity determined in the absence of compound.
The compound SU5614 (Calbiochem) (1 μM) is included in each plate as inhibition control.
The IC50 values for the compounds are calculated by plotting the dose-response curves. The IC50 corresponds to the concentration of compound that induces a 50% inhibition of the kinase activity.

SMILES	IC50
COc1cccc(CNC(=O)c2ccc3[nH]c(-c4n[nH]c5ccccc45)nc3c2)c1 [Example 40, 2-(1H-Indazol-3-yl)-1H-benzoimidazole-5-carboxylic acid 3-methoxy-benzylamide]	300 to 3000 nM
O=C(NCc1ccc2c(c1)OCO2)c1ccc2[nH]c(-c3n[nH]c4ccccc34)nc2c1 [Example 41, 2-(1H-Indazol-3-yl)-1H-benzoimidazole-5-carboxylic acid (benzo[1,3]dioxole-5-ylmethyl)-amide]	300 to 3000 nM
O=C(NCc1csc2ccccc12)c1ccc2[nH]c(-c3n[nH]c4ccccc34)nc2c1 [Example 42, 2-(1H-Indazol-3-yl)-1H-benzoimidazole-5-carboxylic acid (benzo[b]thiophen-3-ylmethyl)-amide]	300 to 3000 nM
Cc1nn(C)cc1CNC(=O)c1ccc2[nH]c(-c3n[nH]c4ccccc34)nc2c1 [Example 43, 2-(1H-Indazol-3-yl)-1H-benzoimidazole-5-carboxylic acid (1,3-dimethyl-1H-pyrazol-4-ylmethyl)-amide]	300 to 3000 nM
O=C(NCc1ccccc1OC(F)(F)F)c1ccc2[nH]c(-c3n[nH]c4ccccc34)nc2c1 [Example 44, 2-(1H-Indazol-3-yl)-1H-benzoimidazole-5-carboxylic acid 2-trifluoromethoxy-benzylamide]	300 to 3000 nM
Cc1ccccc1CNC(=O)c1ccc2[nH]c(-c3n[nH]c4ccccc34)nc2c1 [Example 45, 2-(1H-Indazol-3-yl)-1H-benzoimidazole-5-carboxylic acid 2-methyl-benzylamide]	< 300 nM
Cc1ccsc1CNC(=O)c1ccc2[nH]c(-c3n[nH]c4ccccc34)nc2c1 [Example 46, 2-(1H-Indazol-3-yl)-1H-benzoimidazole-5-carboxylic acid (3-methyl-thiophen-2-ylmethyl)-amide]	300 to 3000 nM
O=C(NCc1ccccc1C(F)(F)F)c1ccc2[nH]c(-c3n[nH]c4ccccc34)nc2c1 [Example 47, 2-(1H-Indazol-3-yl)-1H-benzoimidazole-5-carboxylic acid 2-trifluoromethyl-benzylamide]	300 to 3000 nM
O=C(NCc1ccc(Oc2ccccc2)cc1)c1ccc2[nH]c(-c3n[nH]c4ccccc34)nc2c1 [Example 48, 2-(1H-Indazol-3-yl)-1H-benzoimidazole-5-carboxylic acid 4-phenoxy-benzylamide]	300 to 3000 nM
O=C(NCc1cccc(OC(F)(F)F)c1)c1ccc2[nH]c(-c3n[nH]c4ccccc34)nc2c1 [Example 49, 2-(1H-Indazol-3-yl)-1H-benzoimidazole-5-carboxylic acid 3-trifluoromethoxy-benzylamide]	300 to 3000 nM
CC(C)OCCCNC(=O)c1ccc2[nH]c(-c3n[nH]c4ccccc34)nc2c1 [Example 50, 2-(1H-Indazol-3-yl)-1H-benzoimidazole-5-carboxylic acid (3-isopropoxy-propyl)-amide]	300 to 3000 nM
Cn1cc(CNC(=O)c2ccc3[nH]c(-c4n[nH]c5ccccc45)nc3c2)cn1 [Example 51, 2-(1H-Indazol-3-yl)-1H-benzoimidazole-5-carboxylic acid (1-methyl-1H-pyrazol-4-ylmethyl)-amide]	300 to 3000 nM
CC(C)c1ccc(CNC(=O)c2ccc3[nH]c(-c4n[nH]c5ccccc45)nc3c2)cc1 [Example 52, 2-(1H-Indazol-3-yl)-1H-benzoimidazole-5-carboxylic acid 4-isopropyl-benzylamide]	300 to 3000 nM
Cc1cc(CNC(=O)c2ccc3[nH]c(-c4n[nH]c5ccccc45)nc3c2)c(C)o1 [Example 53, 2-(1H-Indazol-3-yl)-1H-benzoimidazole-5-carboxylic acid (2,5-dimethyl-furan-3-ylmethyl)-amide]	300 to 3000 nM
O=C(NCc1cc2ccccc2s1)c1ccc2[nH]c(-c3n[nH]c4ccccc34)nc2c1 [Example 54, 2-(1H-Indazol-3-yl)-1H-benzoimidazole-5-carboxylic acid (benzo[b]thiophen-2-ylmethyl)-amide]	300 to 3000 nM
CC(=O)Nc1cccc(OCCCNC(=O)c2ccc3[nH]c(-c4n[nH]c5ccccc45)nc3c2)c1 [Example 55, 2-(1H-Indazol-3-yl)-1H-benzoimidazole-5-carboxylic acid [3-(3-acetylamino-phenoxy)-propyl]-amide]	300 to 3000 nM
O=C(NCc1ccc(Cl)nc1)c1ccc2[nH]c(-c3n[nH]c4ccccc34)nc2c1 [Example 56, 2-(1H-Indazol-3-yl)-1H-benzoimidazole-5-carboxylic acid (6-chloro-pyridin-3-ylmethyl)-amide]	< 300 nM
O=C(NCc1ccc(-c2cccs2)s1)c1ccc2[nH]c(-c3n[nH]c4ccccc34)nc2c1 [Example 57, 2-(1H-Indazol-3-yl)-1H-benzoimidazole-5-carboxylic acid ([2,2′]bithiophenyl-5-ylmethyl)-amide]	300 to 3000 nM
O=C(NCc1ccc2c(c1)CCO2)c1ccc2[nH]c(-c3n[nH]c4ccccc34)nc2c1 [Example 58, 2-(1H-Indazol-3-yl)-1H-benzoimidazole-5-carboxylic acid (2,3-dihydro-benzofuran-5-ylmethyl)-amide]	< 300 nM
N#Cc1ccc(CNC(=O)c2ccc3[nH]c(-c4n[nH]c5ccccc45)nc3c2)cc1 [Example 59, 2-(1H-Indazol-3-yl)-1H-benzoimidazole-5-carboxylic acid 4-cyano-benzylamide]	300 to 3000 nM
O=C(NCc1csc2ccc(Cl)cc12)c1ccc2[nH]c(-c3n[nH]c4ccccc34)nc2c1 [Example 60, 2-(1H-Indazol-3-yl)-1H-benzoimidazole-5-carboxylic acid (5-chloro-benzo[b]thiophen-3-ylmethyl)-amide]	> 3000 nM
O=C(NCc1cccc(C(F)(F)F)c1)c1ccc2[nH]c(-c3n[nH]c4ccccc34)nc2c1 [Example 61, 2-(1H-Indazol-3-yl)-1H-benzoimidazole-5-carboxylic acid 3-trifluoromethyl-benzylamide]	> 3000 nM
CSc1ccccc1CNC(=O)c1ccc2[nH]c(-c3n[nH]c4ccccc34)nc2c1 [Example 62, 2-(1H-Indazol-3-yl)-1H-benzoimidazole-5-carboxylic acid 2-methylsulfanyl-benzylamide]	< 300 nM
O=C(NCc1csc2ccccc12)c1ccc2[nH]c(-c3n[nH]c4ccccc34)nc2c1 [Example 63, 2-(1H-Indazol-3-yl)-1H-benzoimidazole-5-carboxylic acid (benzo[b]thiophen-3-ylmethyl)-amide]	< 300 nM
O=C(NCC1CCOCC1)c1ccc2[nH]c(-c3n[nH]c4ccccc34)nc2c1 [Example 64, 2-(1H-Indazol-3-yl)-1H-benzoimidazole-5-carboxylic acid (tetrahydro-pyran-4-ylmethyl)-amide]	300 to 3000 nM
O=C(NCC1COc2ccccc2O1)c1ccc2[nH]c(-c3n[nH]c4ccccc34)nc2c1 (stereo not shown) [Example 65, 2-(1H-Indazol-3-yl)-1H-benzoimidazole-5-carboxylic acid (2,3-dihydro-benzo[1,4]dioxin-2-ylmethyl)-amide]	300 to 3000 nM
O=C(NCc1ccoc1)c1ccc2[nH]c(-c3n[nH]c4ccccc34)nc2c1 [Example 66, 2-(1H-Indazol-3-yl)-1H-benzoimidazole-5-carboxylic acid (furan-3-ylmethyl)-amide]	300 to 3000 nM
O=C(NCc1ccccc1[N+](=O)[O-])c1ccc2[nH]c(-c3n[nH]c4ccccc34)nc2c1 [Example 67, 2-(1H-Indazol-3-yl)-1H-benzoimidazole-5-carboxylic acid 2-nitro-benzylamide]	300 to 3000 nM
